{
  "source": "ChEMBL document CHEMBL1129410",
  "about": "“Diastereoselective synthesis of all four isomers of 3-(4-chlorophenyl) glutamic acid: identification of the isomers responsible for the potentiation of L-homocysteic acid-evoked depolarizations in neonatal rat motoneurons” (1996)",
  "data": [
    {"species_on_record": "Rattus norvegicus", "assay": "Effects of isomer (100 uM) upon 10 uM L-HCA-induced depolarization; Control", "type": "functional", "units": {"Others": "%"}, "values": [
      {"smiles": "NC(C(=O)O)[C@H](CC(=O)O)c1ccc(Cl)cc1", "note": "(stereo partly drawn)", "Others": 130.4},
      {"smiles": "N[C@H](C(=O)O)[C@@H](CC(=O)O)c1ccc(Cl)cc1", "Others": 114.5},
      {"smiles": "N[C@@H](C(=O)O)[C@H](CC(=O)O)c1ccc(Cl)cc1", "Others": 94.2}
    ]}
  ]
}
